Laboratory results as given in patent US8309581B2, “Benzimidazole derivatives” (Hoffmann-La Roche Inc., priority 2009, dated 2012).

What follows are compounds tested against T1, FXR ligand binding domain (Homo sapiens, UniProt Q96RI1) (assay: Radioligand Binding Assay (scintillation proximity radioligand displacement)). Details: GST-FXR LBD fusion protein on SPA beads, test compound 6×10^−9 M to 2.5×10^−5 M.
T1 construct: made in house; host or cells: E. coli BL21 (pLysS)
T1 sequence (Q96RI1 193-472 isoform Q96RI1-2): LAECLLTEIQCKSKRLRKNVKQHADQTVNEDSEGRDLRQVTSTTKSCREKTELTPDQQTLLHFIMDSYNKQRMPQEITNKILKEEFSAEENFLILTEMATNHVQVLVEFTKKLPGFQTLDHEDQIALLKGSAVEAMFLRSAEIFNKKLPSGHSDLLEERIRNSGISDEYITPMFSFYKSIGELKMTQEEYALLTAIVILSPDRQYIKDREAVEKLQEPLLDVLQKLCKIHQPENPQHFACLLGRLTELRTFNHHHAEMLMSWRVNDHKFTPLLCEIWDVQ
Experimental: The following tests were carried out in order to determine the activity of the compounds of formula (I). Background information on the binding assay can be found in: Nichols J S et al. “Development of a scintillation proximity assay for peroxisome proliferator-activated receptor gamma ligand binding domain”, (1998) Anal. Biochem. 257: 112-119.
Bacterial and mammalian expression vectors were constructed to produce glutathione-s-transferase (GST) and Gal4 DNA binding domain (GAL) proteins fused to the ligand binding domain (LBD) of human FXR (aa 193-473). To accomplish this, the portions of the sequences encoding the FXR LBD were amplified by polymerase chain reaction (PCR) from a full-length clone by PCR and then subcloned into the plasmid vectors. The final clone was verified by DNA sequence analysis.
The induction, expression, and subsequent purification of GST-LBD fusion protein was performed in E. coli strain BL21 (pLysS) cells by standard methods (Current Protocols in Molecular Biology, Wiley Press, ed. Ausubel et al.).
Radioligand Binding Assay
Binding of test substances to the FXR ligand binding domain was assessed in a radioligand displacement assay. The assay was performed in a buffer consisting of 50 mM Hepes, pH 7.4, 10 mM NaCl, 5 mM MgCl2, 0.01% CHAPS. For each reaction well in a 96-well plate, 40 nM of GST-FXR LBD fusion protein was bound to […] glutathione ytrium silicate SPA beads (PharmaciaAmersham) in a final volume of […] by shaking. A radioligand (e.g., 20 nM of 2,N-dicyclohexyl-2-[2-(2,4 dimethoxy-phenyl)-benzoimidazol-1-yl]-acetamide) and test compounds were added, and scintillation proximity counting was performed. All binding assays were performed in 96-well plates and the amount of bound ligand was measured on a Packard TopCount using OptiPlates (Packard). Dose response curves were performed within a range of test compound concentrations from 6×10^−9 M to 2.5×10^−5 M and IC50 values were calculated.

Row | SMILES | IC50
1 | Fc1cc2nc(-c3cccnc3OCC3CCCC3)n(CC3CCCCC3)c2cc1F [Example 1, 1-Cyclohexylmethyl-2-(2-cyclopentylmethoxy-pyridin-3-yl)-5,6-difluoro-1H-benzoimidazole] | 200 nM
2 | Fc1cc2nc(-c3cccnc3OCC3CC3)n(CC3CCCCC3)c2cc1F [Example 2, 1-Cyclohexylmethyl-2-(2-cyclopropylmethoxy-pyridin-3-yl)-5,6-difluoro-1H-benzoimidazole] | 2900 nM
3 | Fc1cc2nc(-c3cccnc3OCc3ccccc3Cl)n(CC3CCCCC3)c2cc1F [Example 3, 2-[2-(2-Chloro-benzyloxy)-pyridin-3-yl]-1-cyclohexylmethyl-5,6-difluoro-1H-benzoimidazole] | 700 nM
4 | O=C(O)c1ccc(COc2ncccc2-c2nc3cc(F)c(F)cc3n2CC2CCCCC2)cc1 [Example 4, 4-[3-(1-Cyclohexylmethyl-5,6-difluoro-1H-benzoimidazol-2-yl)-pyridin-2-yloxymethyl]-benzoic acid] | 5800 nM
5 | O=C(O)COc1ccc(COc2ncccc2-c2nc3cc(F)c(F)cc3n2CC2CCCCC2)cc1 [Example 5, {4-[3-(1-Cyclohexylmethyl-5,6-difluoro-1H-benzoimidazol-2-yl)-pyridin-2-yloxymethyl]-phenoxy}-acetic acid] | 12100 nM
6 | Fc1cc2nc(-c3cccnc3OCc3ccccc3Cl)n(Cc3ccccc3)c2cc1F [Example 6, 1-Benzyl-2-[2-(2-chloro-benzyloxy)-pyridin-3-yl]-5,6-difluoro-1H-benzoimidazole] | 1800 nM
7 | Fc1cc2nc(-c3cccnc3OCC3CCCC3)n(Cc3ccccc3)c2cc1F [Example 7, 1-Benzyl-2-(2-cyclopentylmethoxy-pyridin-3-yl)-5,6-difluoro-1H-benzoimidazole] | 3800 nM
8 | Fc1cc2nc(-c3cccnc3OCC3CC3)n(Cc3ccccc3)c2cc1F [Example 8, 1-Benzyl-2-(2-cyclopropylmethoxy-pyridin-3-yl)-5,6-difluoro-1H-benzoimidazole] | 5600 nM
9 | O=C(O)c1ccc(COc2ncccc2-c2nc3cc(F)c(F)cc3n2Cc2ccccc2)cc1 [Example 9, 4-[3-(1-Benzyl-5,6-difluoro-1H-benzoimidazol-2-yl)-pyridin-2-yloxymethyl]-benzoic acid] | 10500 nM
10 | O=C(O)COc1ccc(COc2ncccc2-c2nc3cc(F)c(F)cc3n2Cc2ccccc2)cc1 [Example 10, {4-[3-(1-Benzyl-5,6-difluoro-1H-benzoimidazol-2-yl)-pyridin-2-yloxymethyl]-phenoxy}-acetic acid] | 12800 nM
11 | Fc1cc2nc(-c3cccnc3OCc3ccccc3Cl)n(Cc3cccc(Cl)c3)c2cc1F [Example 11, 1-(3-Chloro-benzyl)-2-[2-(2-chloro-benzyloxy)-pyridin-3-yl]-5,6-difluoro-1H-benzoimidazole] | 800 nM
12 | Fc1cc2nc(-c3cccnc3OCC3CCCC3)n(Cc3cccc(Cl)c3)c2cc1F [Example 12, 1-(3-Chloro-benzyl)-2-(2-cyclopentylmethoxy-pyridin-3-yl)-5,6-difluoro-1H-benzoimidazole] | 1500 nM
13 | Fc1cc2nc(-c3cccnc3OCC3CC3)n(Cc3cccc(Cl)c3)c2cc1F [Example 13, 1-(3-Chloro-benzyl)-2-(2-cyclopropylmethoxy-pyridin-3-yl)-5,6-difluoro-1H-benzoimidazole] | 3600 nM
14 | O=C(O)c1ccc(COc2ncccc2-c2nc3cc(F)c(F)cc3n2Cc2cccc(Cl)c2)cc1 [Example 14, 4-{3-[1-(3-Chloro-benzyl)-5,6-difluoro-1H-benzoimidazol-2-yl]-pyridin-2-yloxymethyl}-benzoic acid] | 5200 nM
15 | O=C(O)COc1ccc(COc2ncccc2-c2nc3cc(F)c(F)cc3n2Cc2cccc(Cl)c2)cc1 [Example 15, (4-{3-[1-(3-Chloro-benzyl)-5,6-difluoro-1H-benzoimidazol-2-yl]-pyridin-2-yloxymethyl}-phenoxy)-acetic acid] | 2600 nM
16 | O=C(O)CCc1ccc(Cn2c(-c3cccnc3OCC3CC3)nc3cc(F)c(F)cc32)cc1 [Example 16, 3-{4-[2-(2-Cyclopropylmethoxy-pyridin-3-yl)-5,6-difluoro-benzoimidazol-1-ylmethyl]-phenyl}-propionic acid] | 66100 nM

Row | SMILES | IC50
17 | O=C(O)CCc1ccc(Cn2c(-c3cccnc3OCc3ccccc3Cl)nc3cc(F)c(F)cc32)cc1 [Example 17, 3-(4-{2-[2-(2-Chloro-benzyloxy)-pyridin-3-yl]-5,6-difluoro-benzoimidazol-1-ylmethyl}-phenyl)-propionic acid] | 10200 nM
18 | O=C(O)CCc1ccc(Cn2c(-c3cccnc3OCC3CCCC3)nc3cc(F)c(F)cc32)cc1 [Example 18, 3-{4-[2-(2-Cyclopentylmethoxy-pyridin-3-yl)-5,6-difluoro-benzoimidazol-1-ylmethyl]-phenyl}-propionic acid] | 30400 nM
19 | Fc1cc2nc(-c3ccc(Cl)cc3OCc3ccccc3Cl)n(CC3CCCCC3)c2cc1F [Example 19, 2-[4-Chloro-2-(2-chloro-benzyloxy)-phenyl]-1-cyclohexylmethyl-5,6-difluoro-1H-benzoimidazole] | 300 nM
20 | Fc1cc2nc(-c3ccc(Cl)cc3OCC3CCCC3)n(CC3CCCCC3)c2cc1F [Example 20, 2-(4-Chloro-2-cyclopentylmethoxy-phenyl)-1-cyclohexylmethyl-5,6-difluoro-1H-benzoimidazole] | 200 nM
21 | Fc1cc2nc(-c3ccc(Cl)cc3OCC3CC3)n(CC3CCCCC3)c2cc1F [Example 21, 2-(4-Chloro-2-cyclopropylmethoxy-phenyl)-1-cyclohexylmethyl-5,6-difluoro-1H-benzoimidazole] | 300 nM
22 | Fc1cc2nc(-c3ccc(Cl)cc3OCC3CCCCC3)n(CC3CCCCC3)c2cc1F [Example 22, 2-(4-Chloro-2-cyclohexylmethoxy-phenyl)-1-cyclohexylmethyl-5,6-difluoro-1H-benzoimidazole] | 200 nM
23 | O=C(O)c1ccc(COc2cc(Cl)ccc2-c2nc3cc(F)c(F)cc3n2CC2CCCCC2)cc1 [Example 23, 4-[5-Chloro-2-(1-cyclohexylmethyl-5,6-difluoro-1H-benzoimidazol-2-yl)-phenoxymethyl]-benzoic acid] | 200 nM
24 | O=C(O)c1cccc(COc2cc(Cl)ccc2-c2nc3cc(F)c(F)cc3n2CC2CCCCC2)c1 [Example 24, 3-[5-Chloro-2-(1-cyclohexylmethyl-5,6-difluoro-1H-benzoimidazol-2-yl)-phenoxymethyl]-benzoic acid] | 700 nM
25 | O=C(O)COc1ccc(COc2cc(Cl)ccc2-c2nc3cc(F)c(F)cc3n2CC2CCCCC2)cc1 [Example 25, {4-[5-Chloro-2-(1-cyclohexylmethyl-5,6-difluoro-1H-benzoimidazol-2-yl)-phenoxymethyl]-phenoxy}-acetic acid] | 100 nM
26 | O=C(O)CCCCCOc1cc(Cl)ccc1-c1nc2cc(F)c(F)cc2n1CC1CCCCC1 [Example 26, 6-[5-Chloro-2-(1-cyclohexylmethyl-5,6-difluoro-1H-benzoimidazol-2-yl)-phenoxy]-hexanoic acid] | 2100 nM
27 | O=C(O)c1ccc(CCOc2cc(Cl)ccc2-c2nc3cc(F)c(F)cc3n2CC2CCCCC2)cc1 [Example 27, 4-{2-[5-Chloro-2-(1-cyclohexylmethyl-5,6-difluoro-1H-benzoimidazol-2-yl)-phenoxy]-ethyl}-benzoic acid] | 500 nM
28 | O=C(O)Cc1ccc(COc2cc(Cl)ccc2-c2nc3cc(F)c(F)cc3n2CC2CCCCC2)cc1 [Example 28, {4-[5-Chloro-2-(1-cyclohexylmethyl-5,6-difluoro-1H-benzoimidazol-2-yl)-phenoxymethyl]-phenyl}-acetic acid] | 200 nM
29 | O=C(O)C1CCC(COc2cc(Cl)ccc2-c2nc3cc(F)c(F)cc3n2CC2CCCCC2)CC1 (stereo not shown) [Example 29, 4-[5-Chloro-2-(1-cyclohexylmethyl-5,6-difluoro-1H-benzoimidazol-2-yl)-phenoxymethyl]-cyclohexane carboxylic acid] | 700 nM
30 | Fc1cc2nc(-c3ccc(Cl)cc3OCc3cccc(-c4nnn[nH]4)c3)n(CC3CCCCC3)c2cc1F [Example 30, 2-{4-Chloro-2-[3-(1H-tetrazol-5-yl)-benzyloxy]-phenyl}-1-cyclohexylmethyl-5,6-difluoro-1H-benzoimidazole] | 400 nM
31 | Fc1cc2nc(-c3ccc(Cl)cc3OCc3ccc(-c4nnn[nH]4)cc3)n(CC3CCCCC3)c2cc1F [Example 31, 2-{4-Chloro-2-[4-(1H-tetrazol-5-yl)-benzyloxy]-phenyl}-1-cyclohexylmethyl-5,6-difluoro-1H-benzoimidazole] | 50 nM
